One test has as its target GLP-1R (Homo sapiens, UniProt P43220). As to the kind of experiment: HitHunter cAMP assay (GLP-1R). Type of test: cell-based. As to conditions: cAMP; for Emax: read-out: (Emax) GLP-1R. The method, then:
(§1) Suspension cells were harvested and resuspended in 1×HBSS (+10 mM HEPES, 625 μM IBMX, 0.2% BSA) according to the following procedure: 5 μL of 2× cell suspension+1× antibody were added to each well, where the optimal cell density was 10,000 cells per well in a low volume 384-well plate. Agonist serial dilutions in a separate 384 well dilution plate in a 22-point series of 2× dilutions of agonist in DMSO were performed as follows. 80 μL of the highest concentration of Agonist/DMSO was added to well No. 1. 40 μL was removed from well No. 1 and added it to well No. 2, followed by gentle mixing. […] This process was repeated until well No. 22. Additional serial dilutions for additional agonists were set up in a similar manner. 50 nL of each 2× agonist serial dilution was added in duplicate to the designated agonist rows of the assay plate using the Labcyte ECHO. Assay plate was incubated for 30 minutes at room temperature. Following agonist incubation, 5 μL of cAMP Antibody Reagent was added to all wells. […] Plates were spun down briefly. Assay plate was incubated for 1 hour at room temperature in the dark for the immunocompetition reaction to occur. […] Plates were spun down briefly. Assay plate was incubated O/N at room temperature in the dark. Samples were read on Tecan i-control plate reader using luminescence mode with 300 ms integration time. Data analysis was performed using GraphPad Prism.
(Cyclic AMP is a second messenger, typically raised through Gs and lowered through Gi signalling.)

In the next test the target is T1, GIP-R (Homo sapiens, UniProt P48546).
T1 sequence (P48546 22-466): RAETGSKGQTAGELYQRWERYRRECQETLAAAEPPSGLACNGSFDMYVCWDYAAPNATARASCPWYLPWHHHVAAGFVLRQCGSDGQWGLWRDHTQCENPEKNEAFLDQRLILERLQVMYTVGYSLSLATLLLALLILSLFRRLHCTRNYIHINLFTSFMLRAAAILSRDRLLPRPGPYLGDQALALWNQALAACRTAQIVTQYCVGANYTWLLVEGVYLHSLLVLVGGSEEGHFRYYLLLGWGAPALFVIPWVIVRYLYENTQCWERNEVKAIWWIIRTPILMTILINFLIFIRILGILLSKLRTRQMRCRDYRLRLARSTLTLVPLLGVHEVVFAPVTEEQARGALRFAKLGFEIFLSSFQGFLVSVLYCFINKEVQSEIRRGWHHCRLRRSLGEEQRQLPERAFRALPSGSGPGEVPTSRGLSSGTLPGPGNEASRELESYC
In words: HitHunter cAMP assay (GIP-R). Type of test: cell-based. As to conditions: cAMP; for Emax: read-out: (Emax) GIP-R. The method, then: as §1

The mark [1] stands for this setting: Table 3A, read-out: EC50 GLP-1R/nM.
Setting [2] is: Table 3A, read-out: EC50 GIP-R/nM.

Where two headings read alike, the source gives them in different places.

Sequence of GLP-1R (P43220 24-463): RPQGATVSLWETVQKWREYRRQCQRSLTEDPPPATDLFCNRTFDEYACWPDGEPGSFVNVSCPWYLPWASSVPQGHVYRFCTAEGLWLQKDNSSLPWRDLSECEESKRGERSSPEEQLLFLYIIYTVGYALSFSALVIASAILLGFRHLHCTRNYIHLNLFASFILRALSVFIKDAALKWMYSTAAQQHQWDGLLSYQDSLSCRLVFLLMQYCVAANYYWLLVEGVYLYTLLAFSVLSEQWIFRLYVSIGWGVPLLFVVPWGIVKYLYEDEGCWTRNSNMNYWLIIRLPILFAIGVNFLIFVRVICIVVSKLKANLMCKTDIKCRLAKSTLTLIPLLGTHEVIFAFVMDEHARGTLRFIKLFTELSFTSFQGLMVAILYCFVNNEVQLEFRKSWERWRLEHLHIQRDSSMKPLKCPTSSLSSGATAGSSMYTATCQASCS

Turning to `CC[C@H](C)[C@H](NC(=O)[C@H](CO)NC(=O)[C@H](Cc1ccc(O)cc1)NC(=O)[C@H](CC(=O)O)NC(=O)[C@H](CO)NC(=O)[C@@H](NC(=O)[C@H](Cc1ccccc1)NC(=O)[C@@H](NC(=O)CNC(=O)[C@H](CCC(=O)O)NC(=O)CSCC(=O)NCCN1C(=O)CN(C)C1=O)[C@@H](C)O)[C@@H](C)O)C(=O)N[C@@H](Cc1ccc(O)cc1)C(=O)N[C@@H](CC(C)C)C(=O)N[C@@H](CC(=O)O)C(=O)N[C@@H](CCCCN)C(=O)N[C@@H](CCC(N)=O)C(=O)N[C@@H](C)C(=O)N[C@@H](C)C(=O)NC(C)(C)C(=O)N[C@@H](CCC(=O)O)C(=O)N[C@@H](Cc1ccccc1)C(=O)N[C@H](C(=O)N[C@@H](CC(N)=O)C(=O)N[C@@H](Cc1c[nH]c2ccccc12)C(=O)N[C@@H](CC(C)C)C(=O)N[C@@H](CC(C)C)C(=O)N[C@@H](C)C(=O)NCC(=O)NCC(=O)N1CCC[C@H]1C(=O)N[C@@H](CO)C(=O)N[C@@H](CO)C(=O)NCC(=O)N[C@@H](C)C(=O)N1CCC[C@H]1C(=O)N1CCC[C@H]1C(=O)N1CCC[C@H]1C(=O)N[C@@H](CO)C(=O)N[C@@H](CCCCN)C(N)=O)C(C)C` [Compound 112], the Emax at GLP-1R (Table 3) and on GLP-1R (Table 3A) was 94% throughout. The EC50 at GLP-1R (Table 3, read-out: EC50 GLP-1R/nM) lay within 10 to 100 nM; at GLP-1R (setting [1]) it was 10 to 100 nM; at GIP-R (Table 3, read-out: EC50 GIP-R/nM), 10 to 100 nM; on GIP-R (setting [2]), 10 to 100 nM. The Emax – broadly, the size of the effect at its maximum, as opposed to the concentration needed – at 1 µM stood at 26% on GIP-R (read-out: (Emax) GIP-R at 1 μM, Table 3) and 26% on GIP-R (read-out: (Emax) GIP-R at 1 μM, Table 3A).

In the case of `CCCCCCCCCCCCCCCC(=O)N[C@@H](CCC(=O)NCCCC[C@H](NC(=O)[C@H](C)NC(=O)[C@H](C)NC(=O)[C@H](CCC(N)=O)NC(=O)[C@H](CCCCN)NC(=O)[C@H](CC(=O)O)NC(=O)[C@H](CC(C)C)NC(=O)[C@H](Cc1ccc(O)cc1)NC(=O)[C@@H](NC(=O)[C@H](CO)NC(=O)[C@H](Cc1ccc(O)cc1)NC(=O)[C@H](CC(=O)O)NC(=O)[C@H](CO)NC(=O)[C@@H](NC(=O)[C@H](Cc1ccccc1)NC(=O)[C@@H](NC(=O)CNC(=O)[C@H](CCC(=O)O)NC(=O)CSCC(=O)NCCN1C(=O)CSC1=O)[C@@H](C)O)[C@@H](C)O)[C@@H](C)CC)C(=O)N[C@@H](CCC(=O)O)C(=O)N[C@@H](Cc1ccccc1)C(=O)N[C@H](C(=O)N[C@@H](CC(N)=O)C(=O)N[C@@H](Cc1c[nH]c2ccccc12)C(=O)N[C@@H](CC(C)C)C(=O)N[C@@H](CC(C)C)C(=O)N[C@@H](C)C(=O)NCC(=O)NCC(=O)N1CCC[C@H]1C(=O)N[C@@H](CO)C(=O)N[C@@H](CO)C(=O)NCC(=O)N[C@@H](C)C(=O)N1CCC[C@H]1C(=O)N1CCC[C@H]1C(=O)N1CCC[C@H]1C(=O)N[C@@H](CO)C(=O)N[C@@H](CCCCN)C(N)=O)C(C)C)C(=O)O` [Compound 200], the maximum response (Emax) worked out at 89% at GLP-1R (Table 3A) and 66% on GIP-R (Table 3A). For the same compound, the EC50 at GLP-1R (setting [1]) lay in the range of 10 to 100 nM; at GIP-R (setting [2]) it was 100 to 1000 nM.

For the compound `CC[C@H](C)[C@H](NC(=O)[C@H](CO)NC(=O)[C@H](Cc1ccc(O)cc1)NC(=O)[C@H](CC(=O)O)NC(=O)[C@H](CO)NC(=O)[C@@H](NC(=O)[C@H](Cc1ccccc1)NC(=O)[C@@H](NC(=O)CNC(=O)[C@H](CCC(=O)O)NC(=O)CSCC(=O)NCCN1C(=O)[C@@H]2[C@H](C1=O)C2(C)C)[C@@H](C)O)[C@@H](C)O)C(=O)N[C@@H](Cc1ccc(O)cc1)C(=O)N[C@@H](CC(C)C)C(=O)N[C@@H](CC(=O)O)C(=O)N[C@@H](CCCCN)C(=O)N[C@@H](CCC(N)=O)C(=O)N[C@@H](C)C(=O)N[C@@H](C)C(=O)NC(C)(C)C(=O)N[C@@H](CCC(=O)O)C(=O)N[C@@H](Cc1ccccc1)C(=O)N[C@H](C(=O)N[C@@H](CC(N)=O)C(=O)N[C@@H](Cc1c[nH]c2ccccc12)C(=O)N[C@@H](CC(C)C)C(=O)N[C@@H](CC(C)C)C(=O)N[C@@H](C)C(=O)NCC(=O)NCC(=O)N1CCC[C@H]1C(=O)N[C@@H](CO)C(=O)N[C@@H](CO)C(=O)NCC(=O)N[C@@H](C)C(=O)N1CCC[C@H]1C(=O)N1CCC[C@H]1C(=O)N1CCC[C@H]1C(=O)N[C@@H](CO)C(=O)N[C@@H](CCCCN)C(N)=O)C(C)C` [Compound 110], the EC50 at GLP-1R (EC50 GLP-1R/nM, Table 3) lay within 10 to 100 nM; at GLP-1R (EC50 GLP-1R/nM, Table 3A) it was 10 to 100 nM; on GIP-R (EC50 GIP-R/nM, Table 3), 10 to 100 nM; on GIP-R (EC50 GIP-R/nM, Table 3A) it was 10 to 100 nM. Also, the Emax worked out at 88% at GLP-1R (Table 3), 88% on GLP-1R (Table 3A), 33% at GIP-R (Table 3) and 33% on GIP-R (Table 3A).

With `CCCCCCCCCCCCCCCC(=O)N[C@@H](CCC(=O)NCCCC[C@H](NC(=O)[C@H](CO)NC(=O)[C@@H]1CCCN1C(=O)[C@@H]1CCCN1C(=O)[C@@H]1CCCN1C(=O)[C@H](C)NC(=O)CNC(=O)[C@H](CO)NC(=O)[C@H](CO)NC(=O)[C@@H]1CCCN1C(=O)CNC(=O)CNC(=O)[C@H](C)NC(=O)[C@H](CC(C)C)NC(=O)[C@H](CC(C)C)NC(=O)[C@H](Cc1c[nH]c2ccccc12)NC(=O)[C@H](CC(N)=O)NC(=O)[C@@H](NC(=O)[C@H](Cc1ccccc1)NC(=O)[C@H](CCC(=O)O)NC(=O)C(C)(C)NC(=O)[C@H](C)NC(=O)[C@H](C)NC(=O)[C@H](CCC(N)=O)NC(=O)[C@H](CCCCN)NC(=O)[C@H](CC(=O)O)NC(=O)[C@H](CC(C)C)NC(=O)[C@H](Cc1ccc(O)cc1)NC(=O)[C@@H](NC(=O)[C@H](CO)NC(=O)[C@H](Cc1ccc(O)cc1)NC(=O)[C@H](CC(=O)O)NC(=O)[C@H](CO)NC(=O)[C@@H](NC(=O)[C@H](Cc1ccccc1)NC(=O)[C@@H](NC(=O)CNC(=O)[C@H](CCC(=O)O)NC(=O)CSCC(=O)NCCN1CCC[C@H](C)C1=O)[C@@H](C)O)[C@@H](C)O)[C@@H](C)CC)C(C)C)C(N)=O)C(=O)O` (single isomer, unassigned) [Compound 207], the Emax at GIP-R (Table 3A) was 68%.

Take `CCCCCCCCCCCCCCCC(=O)N[C@@H](CCC(=O)NCCCC[C@H](NC(=O)[C@H](CO)NC(=O)[C@@H]1CCCN1C(=O)[C@@H]1CCCN1C(=O)[C@@H]1CCCN1C(=O)[C@H](C)NC(=O)CNC(=O)[C@H](CO)NC(=O)[C@H](CO)NC(=O)[C@@H]1CCCN1C(=O)CNC(=O)CNC(=O)[C@H](C)NC(=O)[C@H](CC(C)C)NC(=O)[C@H](CC(C)C)NC(=O)[C@H](Cc1c[nH]c2ccccc12)NC(=O)[C@H](CC(N)=O)NC(=O)[C@@H](NC(=O)[C@H](Cc1ccccc1)NC(=O)[C@H](CCC(=O)O)NC(=O)C(C)(C)NC(=O)[C@H](C)NC(=O)[C@H](C)NC(=O)[C@H](CCC(N)=O)NC(=O)[C@H](CCCCN)NC(=O)[C@H](CC(=O)O)NC(=O)[C@H](CC(C)C)NC(=O)[C@H](Cc1ccc(O)cc1)NC(=O)[C@@H](NC(=O)[C@H](CO)NC(=O)[C@H](Cc1ccc(O)cc1)NC(=O)[C@H](CC(=O)O)NC(=O)[C@H](CO)NC(=O)[C@@H](NC(=O)[C@H](Cc1ccccc1)NC(=O)[C@@H](NC(=O)CNC(=O)[C@H](CCC(=O)O)NC(=O)CSCC(=O)NCCN1CCC[C@@H](C)C1=O)[C@@H](C)O)[C@@H](C)O)[C@@H](C)CC)C(C)C)C(N)=O)C(=O)O` (single isomer, unassigned) [Compound 208]: on GIP-R (Table 3A), the Emax was 59%.

Consider `CCCCCCCCCCCCCCCC(=O)N[C@@H](CCC(=O)NCCCC[C@H](NC(=O)[C@H](CO)NC(=O)[C@@H]1CCCN1C(=O)[C@@H]1CCCN1C(=O)[C@@H]1CCCN1C(=O)[C@H](C)NC(=O)CNC(=O)[C@H](CO)NC(=O)[C@H](CO)NC(=O)[C@@H]1CCCN1C(=O)CNC(=O)CNC(=O)[C@H](C)NC(=O)[C@H](CC(C)C)NC(=O)[C@H](CC(C)C)NC(=O)[C@H](Cc1c[nH]c2ccccc12)NC(=O)[C@H](CC(N)=O)NC(=O)[C@@H](NC(=O)[C@H](Cc1ccccc1)NC(=O)[C@H](CCC(=O)O)NC(=O)C(C)(C)NC(=O)[C@H](C)NC(=O)[C@H](C)NC(=O)[C@H](CCC(N)=O)NC(=O)[C@H](CCCCN)NC(=O)[C@H](CC(=O)O)NC(=O)[C@H](CC(C)C)NC(=O)[C@H](Cc1ccc(O)cc1)NC(=O)[C@@H](NC(=O)[C@H](CO)NC(=O)[C@H](Cc1ccc(O)cc1)NC(=O)[C@H](CC(=O)O)NC(=O)[C@H](CO)NC(=O)[C@@H](NC(=O)[C@H](Cc1ccccc1)NC(=O)[C@@H](NC(=O)CNC(=O)[C@H](CCC(=O)O)NC(=O)CSCC(=O)NCCN1CC[C@@H](O)CC1=O)[C@@H](C)O)[C@@H](C)O)[C@@H](C)CC)C(C)C)C(N)=O)C(=O)O` (single isomer, unassigned) [Compound 203], for which the Emax at GIP-R (Table 3A) came to 44%.

The values above are taken from patent publication US20260176320A1, “MODULATORS OF G-PROTEIN COUPLED RECEPTORS” (priority 2018, published 2026).
